Laboratory results as given in patent US20250320443A1, “Human Brain Organoid, methods for making the brain organoid, and methods of using the brain organoid for high throughput rapid screening and/or evaluation of agents” (NeyroblastGX LLC, priority 2023, published 2025).

Key:
[1] = Preparation of curcumin with H2O (visual); format: physicochemical; conditions: glass vial, non-formulated
Procedure: (§1) FIG. 6A-6H. ChP OrG efficiently screens drug permeability. (FIG. 6A) We have used curcumin (Cur), a natural polyphenolic antioxidant that can disaggregate Amyloid beta (AB) and tau. (FIG. 6B) We have prepared the Cur with H2O and lipids to generate a solid lipid curcumin particle (SLCP). […] (FIG. 6D-6F) We added SLCP and non-formulated (H2O dissolved) Cur to the blood CSF barrier brain OrG (ChP OrG) for 72 h and obtained images. (FIG. 6G) We then collected CSF via a syringe and processed it to measure optical density using a plate reader to determine whether SLCP Cur (500 μM) was permeable into CSF. […] Our novel B-CSFb grown on an HT electrode plate is highly efficient in studying drug permeability on the HT scale and provides insight into using our ChP OrG to accelerate the drug development process for various CNS diseases. Scale bar 100 μm.

[2] = system: blood CSF barrier brain OrG (ChP OrG); assay: ChP OrG drug permeability into CSF (optical density of collected CSF); format: cell-based, human; conditions: 72 h, SLCP Cur 500 μM, CSF collected via syringe
Procedure: as §1
To generate ChP OrG, we use methods similar to those used to generate cCerebral OrG, except for the composition of OrGspheroid SRB media, which contained 50% KSR, 0.1% lipid-rich albumin (AlbuMAX), including all other components as stated in Example 1. For ChP OrG, neural induction was up to 9 days. Neural induction medium was the same as Example 2. Further, neural-induced OrGspheroid (>500 μm) was seeded with gel-matrix domes with a volume of OrGspheroid to MvECs at a 1:20 ratio. […]

[3] = system: synaptophysin and PSD-95 in cCerebral OrG; assay: ICC of synaptic marker proteins in cCerebral OrG injected with AD toxic proteins; format: cell-based, human; conditions: AB or tau alone, injected twice with 10-50 μl (1 mg/ml)
Procedure: FIG. 8A-8D. Verify compatibility to screening NGL ready-to-use brain OrG in other screening platforms with multiple agents. (FIG. 8A) NGL cCerebral was injected twice with 10-50 μl (1 mg/ml) of Alzheimer's disease (AD) toxic proteins (AB and tau oligomers). (FIG. 8B) We found AB and tau together, especially 50 μg concentration, reduced in higher levels of pre- and post-synaptic density marker proteins (synaptophysin and PSD-95) compared to 10 μg concentrations using ICC. […] (FIG. 8C) We compared synaptic loss with the electrode plate signal developed by Applied Biophysics (ABP). We have plated our cCerebral OrG onto ABP electrodes with gel-matrix twice coating to attach efficiently onto cCerebral OrG onto electrodes. Usually, marketed electrode attaching floating OrG tends to be challenging. OrG often slips or moves away from the electrode, thus needing twice or triple-coating layers with gels, providing a great insight into our floating electrode plate novelty compared to other marketed electrodes. After the cCerebral OrG attachment was maintained and grown on the electrode plate for one week and treated with or without the combination of AB and tau (10 and 50 μg).
ICC is a common cellular protein or antigen-detecting and visualization technique that can recognize the target of interest or specific marker expression in cells via quantification imaging. […]

brain OrG = assay: NGL HT electrode plate signal of brain OrG; format: cell-based, human; conditions: 64000 Hz
From the text: HT electroconductive sensing array combined with our optimized brain OrG is the first innovative technology that can be marketed for floating brain OrG for screening pathogens, drugs, and toxicity at a rapid and robust scale. Brain OrG-specific shape 1-3 mm range grown on an electroconductive plate designed and developed by NGL with pay-based service to obtain ECIS base electrode with a desired signal with or without agents. ECIS here refers to electric cell-substrate impedance sensing. We first developed 8 well plates with an electrode. […] We used a nanofarads capacitance (nF) signal curve at 64000 Hz. We determined that the media sample (without OrG, baseline) average signal is 3.7 nF compared to cerebral OrG (˜2 nF), and the same measurement was also acquired by resistance (Ohms).
To determine HT screening various agents, we designed and developed a next-generation HT electrode plate where brain OrG can grow in floating conditions with electrode chambers that can control OrG size without batch-to-batch variations. To develop these electrode sensor chambers (FIG. 7A-7B), we have designed and developed a typical 8×12 configuration that allows 96 samples to be measured and can be upgraded to 384 wells. […] These converters will sample at four times the excitation frequency, thus allowing both the amplitude and phase of the signal at V1 to V2 be measured with an algorithm.

Row | Cur concentration in CSF (permeable into CSF / B-CSFb) [2] | Cur concentration in CSF (permeable into CSF / B-CSFb) ([2]; listed as unformulated Cur) | Compound | behaviour when prepared with H2O [1] | synaptic proteins (synaptophysin and PSD-95) [3] | brain OrG-derived toxic response signal compared to untreated brain OrG (brain OrG)
1 | not detected in CSF | undetected in CSF | COc1cc(/C=C/C(=O)CC(=O)/C=C/c2ccc(O)c(OC)c2)ccc1O [non-formulated Cur, curcumin] | precipitated on the bottom of the glass vial | – | –
2 | – | – | AB: synthetic amyloid-beta (AB) oligomers, Alzheimer's disease toxic protein | – | unable to significantly reduce synaptic proteins | significantly and sensitively differentiated
